Values joined by “and” are separate entries in the source; they are usually repeats but may differ in a detail not shown here. Identical values can stand only once. Inconclusive results and toxic doses are left out. No stated cut-off is given here; in the data, active means T/C of 150% or more; inactive means T/C below 125%.
System: L1210 leukemia ip in BDF1 mice, survival T/C
Experiment: NCI In Vivo Anticancer Drug Screen. Data for tumor model L1210 Leukemia (intraperitoneal) in B6D2F1 (BDF1) mice
Details: endpoint: mean survival time, higher = longer survival
How it was run: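 Tumor was transplanted into mice, which were then dosed with test compound or vehicle alone. Survival was recorded for each group, and the treated figure was expressed relative to the control figure.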

[1] = dose: 100.0 mg/kg/injection, schedule: Q04DX003 (ip), vehicle: saline with Tween-80
[2] = dose: 200.0 mg/kg/injection, schedule: Q04DX003 (ip), vehicle: saline with Tween-80
[3] = dose: 400.0 mg/kg/injection, schedule: Q04DX003 (ip), vehicle: saline with Tween-80
[4] = dose: 50.0 mg/kg/injection, schedule: Q01DX009 (ip), vehicle: Klucel (hydroxypropylcellulose) (HPC)
[5] = dose: 100.0 mg/kg/injection, schedule: Q04DX002 (ip), vehicle: Klucel (hydroxypropylcellulose) (HPC)
[6] = dose: 200.0 mg/kg/injection, schedule: Q04DX002 (ip), vehicle: Klucel (hydroxypropylcellulose) (HPC)
[7] = dose: 400.0 mg/kg/injection, schedule: Q04DX002 (ip), vehicle: Klucel (hydroxypropylcellulose) (HPC)
[8] = dose: 100.0 mg/kg/injection, schedule: Q01DX001 (ip), vehicle: saline
[9] = dose: 100.0 mg/kg/injection, schedule: Q01DX009 (ip), vehicle: saline
[10] = dose: 200.0 mg/kg/injection, schedule: Q01DX001 (ip), vehicle: saline
[11] = dose: 200.0 mg/kg/injection, schedule: Q01DX009 (ip), vehicle: saline
[12] = dose: 400.0 mg/kg/injection, schedule: Q01DX001 (ip), vehicle: saline
[13] = dose: 400.0 mg/kg/injection, schedule: Q01DX009 (ip), vehicle: saline
[14] = dose: 50.0 mg/kg/injection, schedule: Q04DX002 (ip), vehicle: Klucel (hydroxypropylcellulose) (HPC)
[15] = dose: 50.0 mg/kg/injection, schedule: Q04DX002 (ip), vehicle: saline with Tween-80
[16] = dose: 400.0 mg/kg/injection, schedule: Q04DX002 (ip), vehicle: saline with Tween-80

Measured: T/C

Clc1ccc(OCc2sc3ccc(Cl)cc3c2CN2CCOCC2)cc1
inactive: [1] 91 % of control | [2] 90 % of control | [3] 91 % of control

CCOC(=O)C(=O)Cc1nc2ccccc2[nH]c1=O
inactive: [4] 94 % of control | dose: 100.0 mg/kg/injection, schedule: Q01DX009 (ip), vehicle: Klucel (hydroxypropylcellulose) (HPC) 91 % of control | dose: 200.0 mg/kg/injection, schedule: Q01DX009 (ip), vehicle: Klucel (hydroxypropylcellulose) (HPC) 94 % of control

COC(=O)c1cc(/C=C/c2ccccc2)ccc1[N+](=O)[O-]
inactive: dose: 50.0 mg/kg/injection, schedule: Q04DX003 (ip), vehicle: alcohol 90 % of control | dose: 100.0 mg/kg/injection, schedule: Q04DX003 (ip), vehicle: alcohol 101 % of control | dose: 200.0 mg/kg/injection, schedule: Q04DX003 (ip), vehicle: alcohol 104 % of control

CNc1ccccc1C(=O)N/N=C/c1ccccc1Cl
inactive: [5] 108 % of control | [6] 93 % of control | [7] 86 % of control

COC(=O)C(O)(C#CC(C)(C)C)c1ccccc1 (configuration not stated)
inactive: dose: 100.0 mg/kg/injection, schedule: Q01DX001 (ip), vehicle: other 86 % of control | dose: 200.0 mg/kg/injection, schedule: Q01DX001 (ip), vehicle: other 91 % of control | dose: 400.0 mg/kg/injection, schedule: Q01DX001 (ip), vehicle: other 96 % of control

C[N+]1(CC(=O)c2ccc(CCc3ccc(C(=O)C[N+]4(C)CCCCC4)cc3)cc2)CCCCC1
inactive: dose: 0.78 mg/kg/injection, schedule: Q01DX009 (ip), vehicle: saline 117 % of control | dose: 0.78 mg/kg/injection, schedule: Q04DX002 (ip), vehicle: saline 101 % of control | dose: 1.56 mg/kg/injection, schedule: Q01DX009 (ip), vehicle: saline 106 % of control | dose: 1.56 mg/kg/injection, schedule: Q04DX002 (ip), vehicle: saline 95 % of control | dose: 3.12 mg/kg/injection, schedule: Q01DX009 (ip), vehicle: saline 92 % of control | dose: 3.12 mg/kg/injection, schedule: Q04DX002 (ip), vehicle: saline 98 % of control and 105 % of control

COc1ccc(Cl)cc1NC(=O)c1ccc(Cl)cc1Cl
inactive: dose: 100.0 mg/kg/injection, schedule: Q01DX009 (ip), vehicle: saline with Tween-80 96 % of control | [1] 98 % of control | dose: 200.0 mg/kg/injection, schedule: Q01DX009 (ip), vehicle: saline with Tween-80 94 % of control | [2] 93 % of control | dose: 400.0 mg/kg/injection, schedule: Q01DX009 (ip), vehicle: saline with Tween-80 102 % of control | [3] 97 % of control

COc1cc(Cl)c(CC(=O)c2c[nH]c3ccccc23)cc1OC
inactive: dose: 50.0 mg/kg/injection, schedule: Q01DX001 (ip), vehicle: saline 96 % of control | [8] 93 % of control | [9] 95 % of control | [10] 96 % of control | [11] 98 % of control | [12] 96 % of control | [13] 101 % of control

Cc1cccc(N2P(N(C)C)N(c3cccc(C)c3)P2(=O)N(C)C)c1 (configuration not stated)
inactive: [5] 97 % of control | [6] 111 % of control | [7] 94 % of control

O=C(Nc1ccccc1)Nc1ccc(Cl)cc1Cl
inactive: dose: 12.5 mg/kg/injection, schedule: Q04DX002 (ip), vehicle: other 107 % of control | dose: 25.0 mg/kg/injection, schedule: Q04DX002 (ip), vehicle: other 93 % of control | dose: 50.0 mg/kg/injection, schedule: Q04DX002 (ip), vehicle: other 90 % of control | dose: 100.0 mg/kg/injection, schedule: Q04DX002 (ip), vehicle: other 96 % of control

CC(C)c1nc2c(n1Cc1ccccc1)C=C(C(=O)c1ccccc1)S(=O)(=O)C(C(=O)c1ccccc1)=C2
inactive: dose: 25.0 mg/kg/injection, schedule: Q04DX003 (ip), vehicle: saline with Tween-80 107 % of control and 86 % of control | dose: 50.0 mg/kg/injection, schedule: Q01DX001 (ip), vehicle: saline with Tween-80 93 % of control and 104 % of control | [14] 106 % of control | [15] 104 % of control and 105 % of control | dose: 100.0 mg/kg/injection, schedule: Q01DX001 (ip), vehicle: saline with Tween-80 93 % of control and 89 % of control | [5] 110 % of control | dose: 200.0 mg/kg/injection, schedule: Q01DX001 (ip), vehicle: saline with Tween-80 100 % of control and 91 % of control | [6] 93 % of control and 103 % of control | [2] 96 % of control and 89 % of control | [7] 93 % of control | [16] 93 % of control and 89 % of control

CCCCCCCCCCCc1nc(N)nc(NCCCC)n1
inactive: dose: 12.5 mg/kg/injection, schedule: Q01DX009 (ip), vehicle: Klucel (hydroxypropylcellulose) (HPC) 97 % of control | dose: 25.0 mg/kg/injection, schedule: Q01DX009 (ip), vehicle: Klucel (hydroxypropylcellulose) (HPC) 96 % of control | dose: 25.0 mg/kg/injection, schedule: Q04DX002 (ip), vehicle: Klucel (hydroxypropylcellulose) (HPC) 93 % of control | [4] 86 % of control | [14] 96 % of control | [6] 89 % of control | [7] 89 % of control

N#CC(C#N)=C1CCSc2ccc(Cl)cc21
inactive: [8] 94 % of control | [10] 97 % of control | [12] 90 % of control

CCOCCS(=O)(=O)CCS(=O)(=O)CCOCC
inactive: [9] 95 % of control | [11] 103 % of control | [13] 108 % of control

O=S(=O)(N/C(=C(/c1ccccc1)N(c1ccccc1)S(=O)(=O)c1ccccc1)c1ccccc1)c1ccccc1
inactive: dose: 75.0 mg/kg/injection, schedule: Q01DX001 (ip), vehicle: Klucel (hydroxypropylcellulose) (HPC) 90 % of control | dose: 150.0 mg/kg/injection, schedule: Q01DX001 (ip), vehicle: Klucel (hydroxypropylcellulose) (HPC) 87 % of control | dose: 300.0 mg/kg/injection, schedule: Q01DX001 (ip), vehicle: Klucel (hydroxypropylcellulose) (HPC) 90 % of control

CCCCS(=O)(=O)CCCCCCl
inactive: [8] 105 % of control | [10] 104 % of control | [12] 104 % of control

O=C1OC(c2cccc(Cl)c2)=N/C1=C\c1cccc([N+](=O)[O-])c1
inactive: [5] 103 % of control | [6] 100 % of control | [7] 103 % of control

CC(=O)NCCOc1ccc([N+](=O)[O-])cc1
inactive: dose: 100.0 mg/kg/injection, schedule: Q01DX001 (ip), vehicle: Klucel (hydroxypropylcellulose) (HPC) 102 % of control | dose: 200.0 mg/kg/injection, schedule: Q01DX001 (ip), vehicle: Klucel (hydroxypropylcellulose) (HPC) 102 % of control | dose: 400.0 mg/kg/injection, schedule: Q01DX001 (ip), vehicle: Klucel (hydroxypropylcellulose) (HPC) 102 % of control

O=C(CC(NCc1ccccc1)C(=O)O)c1ccccc1 (configuration not stated)
inactive: [8] 100 % of control | [10] 97 % of control | [12] 97 % of control

C(=N\N1CCN(/N=C/c2ccc3c(c2)OCO3)CC1)/c1ccc2c(c1)OCO2
inactive: [8] 104 % of control | [10] 102 % of control | [12] 96 % of control

O=c1oc(-c2cccc([N+](=O)[O-])c2)nc2cc(Cl)ccc12
inactive: [15] 90 % of control | dose: 100.0 mg/kg/injection, schedule: Q04DX002 (ip), vehicle: saline with Tween-80 93 % of control | dose: 200.0 mg/kg/injection, schedule: Q04DX002 (ip), vehicle: saline with Tween-80 93 % of control | [16] 107 % of control

— PubChem BioAssay AID248 (DTP/NCI, 2004)
